Assays:
[1] = system: murine RAW 264.7 macrophage-like cell line; test: Long-term LPS stimulation, PGE2 release; type: cell-based; settings: low μM range
Method: Several 2-oxoamides were tested in the long-term lipopolysaccharide (LPS) stimulation pathway in the murine RAW 264.7 macrophage-like cell line. (Raschke, et al., Cell, 1978, 15, 261-267). This pathway requires GIVA PLA2 activity and results in the extracellular release of many eicosanoid compounds including the prostaglandin PGE2. (Gijon, et al., leukoc. Biol., 1999, 65, 330-336). […] In the low μM range, AX041 and AX073 reduced PGE2 release by roughly 40% (FIG. 1(D)). At 1 μM and 5 μM concentrations, small activations were often seen. The in vitro and cellular results together are consistent with the known roles of GVIA PLA2 given that AX010, a selective GVIA inhibitor, had no cellular effect. […] Inhibitors selective for GIVA PLA2 or dual specificity inhibitors reduce PGE2 levels, also consistent with the known role of GIVA PLA2 in PGE2 production.

[2] = molecular target: T1, Group IVA cPLA2 (GIVA PLA2) (Homo sapiens, UniProt P47712); test: In vitro Group IVA cPLA2 mixed micelle assay; type: biochemical; settings: for Inhibition of GIVA PLA2: at highest dose; for Group IVA XI(50) (mole fraction): Table 1b
T1 sequence (P47712 1-749): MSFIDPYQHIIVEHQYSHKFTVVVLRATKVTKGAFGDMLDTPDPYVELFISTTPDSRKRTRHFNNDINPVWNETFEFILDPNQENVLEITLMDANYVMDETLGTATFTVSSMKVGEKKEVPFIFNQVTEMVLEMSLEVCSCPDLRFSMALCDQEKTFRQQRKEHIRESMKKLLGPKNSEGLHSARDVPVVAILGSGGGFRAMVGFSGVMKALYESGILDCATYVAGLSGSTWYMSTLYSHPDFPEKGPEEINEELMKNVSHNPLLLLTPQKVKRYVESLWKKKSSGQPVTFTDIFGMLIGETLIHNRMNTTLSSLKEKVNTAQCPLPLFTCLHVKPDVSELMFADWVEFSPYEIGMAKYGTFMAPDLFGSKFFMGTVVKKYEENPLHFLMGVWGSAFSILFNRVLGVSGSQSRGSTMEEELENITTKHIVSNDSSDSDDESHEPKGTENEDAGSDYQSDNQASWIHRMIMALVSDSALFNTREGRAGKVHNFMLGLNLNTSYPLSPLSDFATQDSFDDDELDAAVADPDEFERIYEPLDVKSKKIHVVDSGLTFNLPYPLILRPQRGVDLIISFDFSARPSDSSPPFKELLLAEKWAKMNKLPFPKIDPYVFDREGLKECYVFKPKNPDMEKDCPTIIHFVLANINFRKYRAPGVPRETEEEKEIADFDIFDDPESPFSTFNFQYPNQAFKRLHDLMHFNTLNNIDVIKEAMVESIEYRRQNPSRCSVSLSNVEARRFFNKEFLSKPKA
Method: (§1) Numerous 2-oxoamides were tested for inhibition of PLA2s in in vitro assay systems. The data, summarized in Tables 1a, 1b and 2 are represented as XI(50) values unless otherwise noted. XI(50) is defined as the inhibitor concentration that produced 50% inhibition. XI(50) is used as opposed to the more common IC50 because GIVA and GVIA PLA2 are active at a two-dimensional lipid interface rather than in three-dimensional solution. (Deems, Anal. Biochem., 287:1-16, 2000). The 2-oxoamide inhibitors likely partition to the micelle interface and therefore must be represented as a percentage of surface concentration (mole fraction) as opposed to bulk concentration (molar units). (Kokotos, et al., J. Med. Chem., 45:2891-2893, 2002).
(§2) In vitro Group IV cPLA2 and Group VI iPLA2 assays were done as previously described (Kokotos, et al., supra, 2002). Briefly, 100 μM lipid substrate and 100,000 cpm radiolabeled analog were dried down under N2 and dissolved in assay buffer containing 400 μM Triton X-100 to yield a mixed micelle substrate solution. Inhibitors dissolved in DMSO were added to the reaction tubes and allowed to incubate with substrate for five minutes at 40° C. Pure enzyme was added to yield a final volume of 500 μl, and digestion was carried out at 40° C. for 30 minutes. Reactions were quenched and extracted using the Dole method and products were quantified by liquid scintillation counting. Percent inhibition was determined at a range of inhibitor mole fraction concentrations for XI(50) calculations.

[3] = molecular target: T2, Group VIA iPLA2 (GVIA PLA2) (Homo sapiens, UniProt O60733); test: In vitro Group VIA iPLA2 mixed micelle assay; type: biochemical; settings: for Inhibition of GVIA PLA2: at highest dose
T2 sequence (O60733 1-806): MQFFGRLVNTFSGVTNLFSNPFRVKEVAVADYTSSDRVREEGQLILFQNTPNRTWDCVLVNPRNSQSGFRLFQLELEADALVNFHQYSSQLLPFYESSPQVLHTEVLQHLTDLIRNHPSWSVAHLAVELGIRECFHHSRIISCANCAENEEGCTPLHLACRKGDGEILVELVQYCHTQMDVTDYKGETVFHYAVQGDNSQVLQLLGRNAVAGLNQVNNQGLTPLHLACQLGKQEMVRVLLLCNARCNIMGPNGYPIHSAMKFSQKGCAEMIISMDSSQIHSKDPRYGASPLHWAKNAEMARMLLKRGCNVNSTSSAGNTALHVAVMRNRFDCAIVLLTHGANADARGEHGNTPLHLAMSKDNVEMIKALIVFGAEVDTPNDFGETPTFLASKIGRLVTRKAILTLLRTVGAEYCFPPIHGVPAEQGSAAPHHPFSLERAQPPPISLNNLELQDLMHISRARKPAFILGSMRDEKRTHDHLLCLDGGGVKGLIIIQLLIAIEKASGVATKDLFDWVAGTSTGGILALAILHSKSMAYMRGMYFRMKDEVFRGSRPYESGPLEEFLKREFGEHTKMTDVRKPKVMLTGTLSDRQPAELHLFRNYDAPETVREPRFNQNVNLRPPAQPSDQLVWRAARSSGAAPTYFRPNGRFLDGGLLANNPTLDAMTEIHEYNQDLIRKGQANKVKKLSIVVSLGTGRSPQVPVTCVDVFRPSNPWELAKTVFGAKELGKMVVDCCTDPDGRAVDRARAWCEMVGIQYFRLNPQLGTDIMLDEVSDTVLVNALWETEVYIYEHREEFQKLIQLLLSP
Method: as §1, §2

GV sPLA2 = molecular target: T3, GV sPLA2 (Homo sapiens, UniProt P39877); test: GV sPLA2 activity assay; type: biochemical; settings: at 0.091 mole fraction
T3 sequence (P39877 21-138): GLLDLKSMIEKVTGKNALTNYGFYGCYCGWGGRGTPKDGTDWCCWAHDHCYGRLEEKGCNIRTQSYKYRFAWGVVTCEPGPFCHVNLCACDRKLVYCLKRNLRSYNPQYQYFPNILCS
Method: GV sPLA2 activity was measured in a similar assay. The final assay buffer was composed of 50 mM Tris-HCl (pH 8.0) and 5 mM CaCl2. Each assay was performed in 500 μL total volume made up of 100 μL of 5× substrate solution (20 μL of 10 mM Triton X-100 and 80 μL assay buffer), 390 μL assay buffer, 10 μL GV sPLA2 solution (1 μL of 40 ng/μL stock and 9 μL assay buffer), and 5 μL of DMSO or 2-oxoamide in DMSO. The 5× substrate solution was prepared by drying down the phospholipids (in organic solvent) with N2. The appropriate volume of 10 mM Triton X-100 was added, heated and vortexed until clear. Then assay buffer was added to make a 5× substrate solution. The final mixed micelles were at 400 μM Triton X-100 and 100 μM DPPC (of which 100,000 cpm of ^14C-DPPC).

spinal release of PGE2 = test: Intrathecal dialysis and PGE2 assay; type: in vivo, rat; settings: 3 mg/kg IP pretreatment
From the text: For spinal drug injections, lumbar catheters were implanted in rats under isoflurane anesthesia according to a modification of the procedure described by Yaksh (Yaksh and Rudy, supra, 1976). A polyethylene catheter (PE-5; Spectranetics, 0.014 in OD) was inserted into the intrathecal space and advanced to the rostral edge of the lumbar enlargement through an incision in the atlanto-occipital membrane. Five days after implantation rats were entered into the study. In separate experiments to assess spinal prostaglandins release, rats were prepared with lumbar loop dialysis catheters with three lumens, as previously described, see (Yaksh, et al., supra, 2001).
In brief, the outer two lumens were connected to a length of dialysis tubing (10 Kda cut off). The catheter was then implanted intrathecally using the same technique as described above for the intrathecal catheter. A three-day interval was allowed to elapse prior to including the animal in a study. In all cases, the exclusion criteria were i) presence of any neurological sequelae, ii) 20% weight loss after implantation, or iii) catheter occlusion.
Spinal dialysis experiments to define the spinal release of PGE2 were conducted in unanesthetized rats 3 days after dialysis catheter implantation. A syringe pump (Harvard, Natick, Mass.) was connected and dialysis tubing was perfused with artificial cerebro spinal fluid (ACSF) at a rate of 10 μl/min. The ACSF contained (mM) 151.1 Na^+, 2.6 K^+, 0.9 Mg^2+, 1.3 Ca^2+, 122.7 Cl^−, 21.0 HCO3, 2.5 HPO4 and 3.5 dextrose and was bubbled with 95% O2/5% CO2 before each experiment to adjust the final pH to 7.2. The efflux (20 min per fraction) was collected in an automatic fraction collector (Eicom, Kyoto, Japan) at 4° C. […] The concentration of PGE2 in spinal dialysate was measured by ELISA using a commercially available kit (Assay Designs 90001, Assay Designs, Ann Arbor, Mich.). The antibody is selective for PGE2 with less than 2.0% cross-reactivity to PGF1, PGF2, 6-ketoPGF1, PGA2 or PGB2, but cross-reacts with PGE1 and PGE3.

| SMILES | Inhibition of GVIA PLA2 [3] | melting point [°C] | inhibition of GIVA PLA2 (cPLA2), in words [2] | inhibition of GVIA PLA2 (iPLA2), in words [3] | other results |
| --- | --- | --- | --- | --- | --- |
| CCCCCCCCC=CCCCCCCCC(=O)C(=O)NCCCC(=O)OC [AX041, 4-(2-Oxo-nonadec-10-enoylamino)-butyric acid methyl ester] | – | – | – | – | reduction of PGE2 release [1]: roughly 40% |
| O=C(O)CCCNC(=O)C(=O)CCCc1ccccc1 [AX036, 4-(2-Oxo-5-phenyl-pentanoylamino)-butyric acid] | ND (negligible inhibition (0-25%) at highest dose) | 65 to 67 | – | – | Inhibition of GIVA PLA2 [2]: ND (negligible inhibition (0-25%) at highest dose) |
| O=C(O)CCCNC(=O)C(=O)CCCCc1ccccc1 [AX035, 4-(2-Oxo-6-phenyl-hexanoylamino)-butyric acid] | ND (negligible inhibition (0-25%) at highest dose) | 60 to 62 | – | – | Inhibition of GIVA PLA2 [2]: ND (negligible inhibition (0-25%) at highest dose) |
| CCCCCCCCCCCCCCC(=O)C(=O)NCCCC(=O)OC(C)(C)C [AX057, tert-Butyl 4-[(2-oxohexadecanoyl)amino]butanoate] | – | 61 to 62 | – | – | Group IVA XI(50) (mole fraction) [2]: 0.031 ± 0.017 mole fraction; Group VIA XI(50) (mole fraction) ([3]; Table 1b): 0.026 ± 0.014 mole fraction; efficacy against sPLA2 (GV sPLA2): 76.7%; IT SP-evoked release of PGE2 in spinal dialysate (spinal release of PGE2): significant increase as compared to vehicle only |
| CCC(=O)C(=O)NCCCC(=O)O [AX006] | ND (negligible inhibition (0-25%) at highest dose) | – | inhibit GIVA PLA2 | do not inhibit GVIA PLA2 | Group IVA XI(50) (mole fraction) [2]: 0.024 ± 0.015 mole fraction; Group VIA XI(50), class ([3]; at 0.091 mole fraction): N.D. (25% inhibition or less at 0.091 mole fraction); IT SP-evoked release of PGE2 in spinal dialysate (spinal release of PGE2): significant increase as compared to vehicle only |
| CCCCCCCCC=CCCCCCCCC(=O)C(=O)NCCCC(=O)O [AX040, 4-(2-Oxo-nonadec-10-enoylamino)-butyric acid] | ND (negligible inhibition (0-25%) at highest dose) | 57 to 59 | inhibit GIVA PLA2 | do not inhibit GVIA PLA2 | – |
| CCCCCCCCCCCCCCC(=O)C(=O)NC(C=CC(=O)O)CCCC (stereo not drawn) [AX074, 4-(2-Oxo-hexadecanoylamino)-oct-2-enoic acid] | ND (negligible inhibition (0-25%) at highest dose) | 65 to 67 | inhibit GIVA PLA2 | do not inhibit GVIA PLA2 | Inhibition of GIVA PLA2, XI(50) [2]: XI(50) =0.003 ± 0.001 mole fraction |
